SMILES strings stand for the structures.

Test [1] has as its system P. vivax liver-stage parasites. Description: P. vivax liver-stage in vitro assay, radical cure mode. Type of test: cell-based, Plasmodium vivax. The note with it: 20 μM, two independent runs, threshold for activity 75% inhibition. Here is the method: (§1) Compound 1 and its metabolites were tested in both prophylactic and radical cure modes for activity against P. vivax liver-stage parasites.[16],[17] In the prophylactic assay, compounds are added the day after sporozoite invasion into hepatocytes in order to characterize the compound activity against established liver forms with a parasitophorous vacuole membrane (as opposed to activity on preinvasion sporozoites) and prior to complete maturation of hypnozoites into drug-insensitive dormant forms, which appear at about 5 days postinvasion.[18] In the radical cure assay, compounds are added at day 5 postinfection to characterize activity against late-stage schizonts and mature PI4K inhibitor-insensitive hypnozoites.[19] In these experiments, the threshold for activity is 75% inhibition. […] Similarly, as previously described,[20] 10 μM concentrations of 1 and its metabolites were also tested for activity against P. cynomolgi schizont (large forms) and hypnozoite (small forms) liver-stage parasites cultured in rhesus monkey hepatocytes. In these experiments, the threshold for activity is 50% inhibition.
(§2) Compounds were prepared as 20 mM stock solutions in DMSO and tested in an eight-point semilog (1/3) dilution series from 20 μM in 384-well assay plates in both prophylactic and radical cure mode against P. vivax liver-stage parasites as previously described.[16] Following ethical approval from the Institutional Ethics Committee of the Thai Ministry of Public Health, the Ethical Review Committee of Faculty of Tropical Medicine, Mahidol University (TMEC 11-008 and 14-016), the Oxford Tropical Medicine Ethical Committee, Oxford University, England (OxTREC 17-11 and 40–14), and the Cambodian National Ethics Committee for Health Research (101NECHR), isolates of P. vivax infected blood were collected from patent volunteers in Tak province, Thailandm and Mondulkiri province, Cambodia. Samples were collected by venipuncture into heparin tubes prior to replacement of patient serum with nonimmune AB human serum and feeding to laboratory-reared Anopheles dirus cracens or An. dirus A mosquitoes via water-jacket artificial membrane feeders or the Hemotek insect feeding system (Hemotek, Blackburn, UK) set to maintain the bloodmeal temperature at 37 °C. […] Cryopreserved human hepatocytes (BioIVT, Baltimore, Maryland, USA) were thawed into InVitroGro CP Medium (BioIVT), quantified for viability by trypan blue dye exclusion, diluted to 800–1000 live cells per microliter, and 18000 live cells were plated into each well of a collagen-coated 384-well plate (Greiner, Monroe, NC, USA) by a 16-channel pipet (Finnpipette, Thermo Fisher Scientific, Waltham, MA). […]

The subject of test [2] is P. vivax liver-stage parasites. In words: P. vivax liver-stage in vitro assay, prophylactic mode. Type of test: cell-based, Plasmodium vivax. To be noted: 20 μM, two independent runs, threshold for activity 75% inhibition. Here is the method: as §1, §2

With `CCN(CC)CCN(CCN(CC)CC)c1cc(OC)c(OC)cc1Br` [Compound 1, 4-(2-bromo-4,5-dimethoxyphenyl)-1,1,7,7-tetraethyldiethylenetriamine], the “activity against schizonts or hypnozoites” value in test [1] and in test [2] was “no activity” throughout.

Values taken from article PMC9016807, “Metabolic, Pharmacokinetic, and Activity Profile of the Liver Stage Antimalarial (RC-12)” (ACS Omega, 2022).
